Here are results for 25 molecules from BindingDB's records for doi:10.1111/cbdd.12445 (Konkuk University, 2015).

Molecules are shown by their SMILES.

What is called IC50 is the concentration needed to halve the response being measured. High values mean weaker potency in that assay, low ones greater potency in that assay.

Sequence of Aurora kinase B (Q96GD4 whole entry): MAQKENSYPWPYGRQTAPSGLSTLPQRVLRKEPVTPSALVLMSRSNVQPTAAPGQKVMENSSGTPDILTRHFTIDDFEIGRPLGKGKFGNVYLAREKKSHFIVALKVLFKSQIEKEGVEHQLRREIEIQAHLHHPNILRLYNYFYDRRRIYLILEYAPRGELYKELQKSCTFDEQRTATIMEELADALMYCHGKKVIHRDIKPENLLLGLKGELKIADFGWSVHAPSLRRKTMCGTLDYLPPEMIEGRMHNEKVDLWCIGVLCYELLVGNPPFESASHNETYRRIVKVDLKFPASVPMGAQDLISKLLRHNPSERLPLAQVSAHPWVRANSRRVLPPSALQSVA

The test concerns the target Aurora kinase B (Homo sapiens, UniProt Q96GD4). Nature of the test: Aurora B Kinase Assay.
The molecule `O=c1c(O)c(-c2cc(O)c(O)c(O)c2)oc2cc(O)cc(O)c12` registered an IC50 of 3.98 µM.

For the molecule `COc1cc(-c2oc3cc(O)cc(O)c3c(=O)c2O)ccc1O`, inhibition was half-maximal at 4.34 µM (IC50).

For `O=c1c(O)c(-c2ccc(O)c(O)c2)oc2c(O)c(O)cc(O)c12`, half-maximal inhibition (IC50) was put at 4.1 µM.

`O=c1cc(-c2ccccc2)oc2cc(O)c(O)c(O)c12` showed an IC50 of 4.06 µM.

`O=c1c(O)c(-c2ccc(O[C@@H]3O[C@H](CO)[C@@H](O)[C@H](O)[C@H]3O)c(O)c2)oc2cc(O)cc(O)c12` displayed a 50% inhibitory concentration (IC50) of 29.4 µM.

Molecule `O=c1c(O)c(-c2ccc(O)cc2)oc2cc(O)cc(O)c12` gave an IC50 of 4.03 µM.

`O=c1c(O)c(-c2ccc(O)cc2O)oc2cc(O)cc(O)c12` [2-(2,4-dihydroxyphenyl)-3,5,7-trihydroxychromen-4-one] registered an IC50 of 4.71 µM.

Consider `O=c1c(O)c(-c2ccc(O)c(O)c2)oc2cc(O)c(O)c(O)c12` [2-(3,4-dihydroxyphenyl)-3,5,6,7-tetrahydroxy-4H-chromen-4-one], for which inhibition was half-maximal at 2.62 µM (IC50).

Molecule `O=c1c(O)c(-c2ccc(O)c(O)c2)oc2c(O[C@@H]3O[C@H](CO)[C@@H](O)[C@H](O)[C@H]3O)c(O)cc(O)c12` [2-(3,4-dihydroxyphenyl)-3,5,7-trihydroxy-8-[(2S,3R,4S,5S,6R)-3,4,5-trihydroxy-6-(hydroxymethyl)oxan-2-yl]oxychromen-4-one] gave an IC50 of 11.1 µM.

`O=c1c(O)c(-c2ccc(O)c(O)c2)oc2cc(O)cc(O)c12` [2-(3,4-dihydroxyphenyl)-3,5,7-trihydroxy-chromone;hydrate] came in with an IC50 of 3.96 µM.

`O=c1c(O)c(-c2ccc(O)c(O)c2)oc2cc(O)ccc12` [2-(3,4-dihydroxyphenyl)-3,7-dihydroxy-chromen-4-one] registered an IC50 of 2.63 µM.

`O=c1c(O[C@@H]2O[C@H](CO)[C@@H](O)[C@H](O)[C@H]2O)c(-c2ccc(O)c(O)c2)oc2cc(O)cc(O)c12` [2-(3,4-dihydroxyphenyl)-5,7-dihydroxy-3-[(2S,3R,4S,5S,6R)-3,4,5-trihydroxy-6-(hydroxymethyl)oxan-2-yl]oxychromen-4-one] came in with an IC50 of 10.7 µM.

The molecule `O=c1cc(-c2ccc(O)c(O)c2)oc2cc(O)cc(O)c12` [2-(3,4-dihydroxyphenyl)-5,7-dihydroxy-4H-chromen-4-one] came in with an IC50 of 3.88 µM.

The molecule `COc1ccc(-c2cc(=O)c3c(OC)c(OC)c(OC)cc3o2)cc1OC` [2-(3,4-dimethoxyphenyl)-5,6,7-trimethoxy-4H-chromen-4-one] yielded a 50% inhibitory concentration (IC50) of 5.31 µM.

For the molecule `O=c1c(O)c(-c2ccccc2O)oc2cc(O)cc(O)c12` [3,5,7-trihydroxy-2-(2-hydroxyphenyl)chromen-4-one], the IC50 was 17.8 µM.

In turn, `COc1ccc(-c2oc3cc(O)cc(O)c3c(=O)c2O)cc1O` [3,5,7-trihydroxy-2-(3-hydroxy-4-methoxyphenyl)-4H-chromen-4-one] displayed a concentration for half-maximal inhibition (IC50) of 7.39 µM.

Take `COc1cc(-c2oc3cc(O)ccc3c(=O)c2O)ccc1O` [3,7-dihydroxy-2-(4-hydroxy-3-methoxyphenyl)chromen-4-one]: inhibition was half-maximal at 2.85 µM (IC50).

For the molecule `O=c1c(O)c(-c2ccccc2)oc2ccccc12` [3-hydroxy-2-phenyl-4H-chromen-4-one], the IC50 came to 4.29 µM.

The molecule `O=c1cc(-c2ccc(O)cc2)oc2cc(O)c(O)c(O)c12` [5,6,7-trihydroxy-2-(4-hydroxyphenyl)-4H-chromen-4-one] yielded a 50% inhibitory concentration (IC50) of 3.85 µM.

With `C[C@@H]1O[C@@H](Oc2c(-c3cc(O)c(O)c(O)c3)oc3cc(O)cc(O)c3c2=O)[C@H](O)[C@H](O)[C@H]1O` [5,7-dihydroxy-3-[(2S,3R,4R,5R,6S)-3,4,5-trihydroxy-6-methyloxan-2-yl]oxy-2-(3,4,5-trihydroxyphenyl)chromen-4-one], the IC50 was determined as 3.89 µM.

For `COc1cc(-c2cc(=O)c3c(O)c(OC)c(OC)c(OC)c3o2)cc(OC)c1OC` [5-hydroxy-6,7,8-trimethoxy-2-(3,4,5-trimethoxyphenyl)chromen-4-one], the IC50 was 42.7 µM.

As to `O=c1cc(-c2ccc(O)cc2)oc2cc(O[C@@H]3O[C@H](CO)[C@@H](O)[C@H](O)[C@H]3O[C@@H]3OC[C@](O)(CO)[C@H]3O)cc(O)c12` [7-[(2S,3R,4S,5S,6R)-3-[(2S,3R,4R)-3,4-dihydroxy-4-(hydroxymethyl)oxolan-2-yl]oxy-4,5-dihydroxy-6-(hydroxymethyl)oxan-2-yl]oxy-5-hydroxy-2-(4-hydroxyphenyl)chromen-4-one], half-maximal inhibition (IC50) was put at 12.1 µM.

`O=C(O)[C@H]1O[C@@H](Oc2cc3oc(-c4ccccc4)cc(=O)c3c(O)c2O)[C@H](O)[C@@H](O)[C@@H]1O` [(2S,3S,4S,5R,6S)-6-(5,6-dihydroxy-4-oxo-2-phenyl-4H-chromen-7-yloxy)-3,4,5-trihydroxy-tetrahydro-2H-pyran-2-carboxylic acid] came in with an IC50 of 12.2 µM.

Molecule `O=c1cc(-c2ccc(O)cc2)oc2cc(O)cc(O)c12` [Naringenin, 18] registered an IC50 of 3.96 µM.

The molecule `O=c1c(O)c(-c2ccccc2)oc2cc(O)cc(O)c12` [norizalpinin] returned a concentration for half-maximal inhibition (IC50) of 9.8 µM.
